Source: ChEMBL document CHEMBL1155172, “Distribution of radioactivity in bone and related structures following administration of [14C]dalbavancin to New Zealand white rabbits” (Antimicrob Agents Chemother, 2007)

Key:
[1] = Drug level in New Zealand white rabbit synovial space assessed as [14C]dalbavancin level per gram of tissue at 20 mg/kg, iv after 12 hrs by autoradioluminography; assay type: ADME, organism-based, Oryctolagus cuniculus; parameters: dose 20 mg/kg, route intravenous; conditions: in vivo
[2] = Drug level in New Zealand white rabbit synovial space assessed as [14C]dalbavancin level per gram of tissue at 20 mg/kg, iv after 336 hrs by autoradioluminography; assay type: ADME, organism-based, Oryctolagus cuniculus; parameters: dose 20 mg/kg, route intravenous; conditions: in vivo
[3] = Drug level in New Zealand white rabbit meniscus assessed as [14C]dalbavancin level per gram of tissue at 20 mg/kg, iv after 12 hrs by autoradioluminography; assay type: ADME, organism-based, Oryctolagus cuniculus; parameters: dose 20 mg/kg, route intravenous; conditions: in vivo
[4] = Drug level in New Zealand white rabbit meniscus assessed as [14C]dalbavancin level per gram of tissue at 20 mg/kg, iv after 24 hrs by autoradioluminography; assay type: ADME, organism-based, Oryctolagus cuniculus; parameters: dose 20 mg/kg, route intravenous; conditions: in vivo
[5] = Drug level in New Zealand white rabbit meniscus assessed as [14C]dalbavancin level per gram of tissue at 20 mg/kg, iv after 72 hrs by autoradioluminography; assay type: ADME, organism-based, Oryctolagus cuniculus; parameters: dose 20 mg/kg, route intravenous; conditions: in vivo
[6] = Drug level in New Zealand white rabbit bone marrow assessed as [14C]dalbavancin level per gram of tissue at 20 mg/kg, iv after 12 hrs by autoradioluminography; assay type: ADME, organism-based, Oryctolagus cuniculus; parameters: dose 20 mg/kg, route intravenous; conditions: in vivo
[7] = Drug level in New Zealand white rabbit bone marrow assessed as [14C]dalbavancin level per gram of tissue at 20 mg/kg, iv after 24 hrs by autoradioluminography; assay type: ADME, organism-based, Oryctolagus cuniculus; parameters: dose 20 mg/kg, route intravenous; conditions: in vivo
[8] = Drug level in New Zealand white rabbit bone marrow assessed as [14C]dalbavancin level per gram of tissue at 20 mg/kg, iv after 72 hrs by autoradioluminography; assay type: ADME, organism-based, Oryctolagus cuniculus; parameters: dose 20 mg/kg, route intravenous; conditions: in vivo
[9] = Drug level in New Zealand white rabbit bone marrow assessed as [14C]dalbavancin level per gram of tissue at 20 mg/kg, iv after 336 hrs by autoradioluminography; assay type: ADME, organism-based, Oryctolagus cuniculus; parameters: dose 20 mg/kg, route intravenous; conditions: in vivo
[10] = Drug level in New Zealand white rabbit skeletal muscle assessed as [14C]dalbavancin level per gram of tissue at 20 mg/kg, iv after 12 hrs by autoradioluminography; assay type: ADME, organism-based, Oryctolagus cuniculus; parameters: dose 20 mg/kg, route intravenous; conditions: in vivo
[11] = Drug level in New Zealand white rabbit skeletal muscle assessed as [14C]dalbavancin level per gram of tissue at 20 mg/kg, iv after 72 hrs by autoradioluminography; assay type: ADME, organism-based, Oryctolagus cuniculus; parameters: dose 20 mg/kg, route intravenous; conditions: in vivo
[12] = Drug level in New Zealand white rabbit skeletal muscle assessed as [14C]dalbavancin level per gram of tissue at 20 mg/kg, iv after 120 hrs by autoradioluminography; assay type: ADME, organism-based, Oryctolagus cuniculus; parameters: dose 20 mg/kg, route intravenous; conditions: in vivo
Staphylococcus = assay: Antibacterial activity against Staphylococcus; assay type: functional
Blood = assay: Drug level in New Zealand white rabbit blood assessed as [14C]dalbavancin level per gram of tissue at 20 mg/kg, iv after 120 hrs by autoradioluminography; assay type: ADME, organism-based, Oryctolagus cuniculus; parameters: dose 20 mg/kg, route intravenous; conditions: in vivo
[13] = Drug level in New Zealand white rabbit periostium assessed as [14C]dalbavancin level per gram of tissue at 20 mg/kg, iv after 12 hrs by autoradioluminography; assay type: ADME, organism-based, Oryctolagus cuniculus, Periosteum; parameters: dose 20 mg/kg, route intravenous; conditions: in vivo
[14] = Drug level in New Zealand white rabbit periostium assessed as [14C]dalbavancin level per gram of tissue at 20 mg/kg, iv after 168 hrs by autoradioluminography; assay type: ADME, organism-based, Oryctolagus cuniculus, Periosteum; parameters: dose 20 mg/kg, route intravenous; conditions: in vivo
[15] = Drug level in New Zealand white rabbit articular cartilage assessed as [14C]dalbavancin level per gram of tissue at 20 mg/kg, iv after 12 hrs by autoradioluminography; assay type: ADME, organism-based, Oryctolagus cuniculus; parameters: dose 20 mg/kg, route intravenous; conditions: in vivo
[16] = Drug level in New Zealand white rabbit articular cartilage assessed as [14C]dalbavancin level per gram of tissue at 20 mg/kg, iv after 72 hrs by autoradioluminography; assay type: ADME, organism-based, Oryctolagus cuniculus; parameters: dose 20 mg/kg, route intravenous; conditions: in vivo
[17] = Drug level in New Zealand white rabbit articular cartilage assessed as [14C]dalbavancin level per gram of tissue at 20 mg/kg, iv after 168 hrs by autoradioluminography; assay type: ADME, organism-based, Oryctolagus cuniculus; parameters: dose 20 mg/kg, route intravenous; conditions: in vivo
[18] = Drug level in New Zealand white rabbit articular cartilage assessed as [14C]dalbavancin level per gram of tissue at 20 mg/kg, iv after 336 hrs by autoradioluminography; assay type: ADME, organism-based, Oryctolagus cuniculus; parameters: dose 20 mg/kg, route intravenous; conditions: in vivo
[19] = Drug level in New Zealand white rabbit compact bone assessed as [14C]dalbavancin level per gram of tissue at 20 mg/kg, iv after 120 hrs by autoradioluminography; assay type: ADME, organism-based, Oryctolagus cuniculus, Bone element; parameters: dose 20 mg/kg, route intravenous; conditions: in vivo
[20] = Drug level in New Zealand white rabbit compact bone assessed as [14C]dalbavancin level per gram of tissue at 20 mg/kg, iv after 168 hrs by autoradioluminography; assay type: ADME, organism-based, Oryctolagus cuniculus, Bone element; parameters: dose 20 mg/kg, route intravenous; conditions: in vivo
[21] = Drug level in New Zealand white rabbit epiphyseal plate assessed as [14C]dalbavancin level per gram of tissue at 20 mg/kg, iv after 24 hrs by autoradioluminography; assay type: ADME, organism-based, Oryctolagus cuniculus; parameters: dose 20 mg/kg, route intravenous; conditions: in vivo
[22] = Drug level in New Zealand white rabbit epiphyseal plate assessed as [14C]dalbavancin level per gram of tissue at 20 mg/kg, iv after 120 hrs by autoradioluminography; assay type: ADME, organism-based, Oryctolagus cuniculus; parameters: dose 20 mg/kg, route intravenous; conditions: in vivo
[23] = Drug level in New Zealand white rabbit ligament assessed as [14C]dalbavancin level per gram of tissue at 20 mg/kg, iv after 12 hrs by autoradioluminography; assay type: ADME, organism-based, Oryctolagus cuniculus; parameters: dose 20 mg/kg, route intravenous; conditions: in vivo
[24] = Drug level in New Zealand white rabbit ligament assessed as [14C]dalbavancin level per gram of tissue at 20 mg/kg, iv after 24 hrs by autoradioluminography; assay type: ADME, organism-based, Oryctolagus cuniculus; parameters: dose 20 mg/kg, route intravenous; conditions: in vivo
Oryctolagus cuniculus [25] = assay: Plasma concentration in New Zealand white rabbit assessed as [14C]dalbavancin level per gram of tissue at 20 mg/kg, iv after 24 hrs by liquid scintillation counting method; assay type: ADME, organism-based; parameters: dose 20 mg/kg, route intravenous; conditions: in vivo
Oryctolagus cuniculus [26] = assay: Plasma concentration in New Zealand white rabbit assessed as [14C]dalbavancin level per gram of tissue at 20 mg/kg, iv after 120 hrs by liquid scintillation counting method; assay type: ADME, organism-based; parameters: dose 20 mg/kg, route intravenous; conditions: in vivo
Oryctolagus cuniculus [27] = assay: Plasma concentration in New Zealand white rabbit assessed as [14C]dalbavancin level per gram of tissue at 20 mg/kg, iv after 336 hrs by liquid scintillation counting method; assay type: ADME, organism-based; parameters: dose 20 mg/kg, route intravenous; conditions: in vivo
[28] = Drug level in New Zealand white rabbit bone assessed as [14C]dalbavancin level per gram of tissue at 20 mg/kg, iv after 72 hrs by liquid scintillation counting method; assay type: ADME, organism-based, Oryctolagus cuniculus, Bone element; parameters: dose 20 mg/kg, route intravenous; conditions: in vivo
[29] = Drug level in New Zealand white rabbit bone assessed as [14C]dalbavancin level per gram of tissue at 20 mg/kg, iv after 168 hrs by liquid scintillation counting method; assay type: ADME, organism-based, Oryctolagus cuniculus, Bone element; parameters: dose 20 mg/kg, route intravenous; conditions: in vivo
[30] = Drug level in New Zealand white rabbit bone assessed as [14C]dalbavancin level per gram of tissue at 20 mg/kg, iv after 336 hrs by liquid scintillation counting method; assay type: ADME, organism-based, Oryctolagus cuniculus, Bone element; parameters: dose 20 mg/kg, route intravenous; conditions: in vivo
[31] = Drug level in New Zealand white rabbit bone marrow assessed as [14C]dalbavancin level per gram of tissue at 20 mg/kg, iv after 12 hrs by liquid scintillation counting method; assay type: ADME, organism-based, Oryctolagus cuniculus; parameters: dose 20 mg/kg, route intravenous; conditions: in vivo
[32] = Drug level in New Zealand white rabbit bone marrow assessed as [14C]dalbavancin level per gram of tissue at 20 mg/kg, iv after 120 hrs by liquid scintillation counting method; assay type: ADME, organism-based, Oryctolagus cuniculus; parameters: dose 20 mg/kg, route intravenous; conditions: in vivo
[33] = Drug level in New Zealand white rabbit bone marrow assessed as [14C]dalbavancin level per gram of tissue at 20 mg/kg, iv after 168 hrs by liquid scintillation counting method; assay type: ADME, organism-based, Oryctolagus cuniculus; parameters: dose 20 mg/kg, route intravenous; conditions: in vivo
[34] = Drug level in New Zealand white rabbit nucleus pulposus assessed as [14C]dalbavancin level per gram of tissue at 20 mg/kg, iv after 120 hrs by liquid scintillation counting method; assay type: ADME, organism-based, Oryctolagus cuniculus; parameters: dose 20 mg/kg, route intravenous; conditions: in vivo
[35] = Drug level in New Zealand white rabbit nucleus pulposus assessed as [14C]dalbavancin level per gram of tissue at 20 mg/kg, iv after 168 hrs by liquid scintillation counting method; assay type: ADME, organism-based, Oryctolagus cuniculus; parameters: dose 20 mg/kg, route intravenous; conditions: in vivo
[36] = Drug level in New Zealand white rabbit nucleus pulposus assessed as [14C]dalbavancin level per gram of tissue at 20 mg/kg, iv after 336 hrs by liquid scintillation counting method; assay type: ADME, organism-based, Oryctolagus cuniculus; parameters: dose 20 mg/kg, route intravenous; conditions: in vivo

## CN[C@H]1C(=O)N[C@@H]2Cc3ccc(cc3)Oc3cc4cc(c3O[C@@H]3O[C@H](C(=O)O)[C@@H](O)[C@H](O)[C@H]3NC(=O)CCCCCCCCC(C)C)Oc3ccc(cc3Cl)[C@@H](O)[C@@H]3NC(=O)[C@H](NC(=O)[C@@H]4NC(=O)[C@@H](NC2=O)c2cc(cc(O)c2Cl)Oc2cc1ccc2O)c1ccc(O)c(c1)-c1c(O[C@H]2O[C@H](CO)[C@@H](O)[C@H](O)[C@@H]2O)cc(O)cc1[C@@H](C(=O)NCCCN(C)C)NC3=O [DALBAVANCIN]
[1]
  Drug uptake: 6.56 µg/g
[2]
  Drug uptake: 1.16 µg/g
[3]
  Drug uptake: 19.19 µg
[4]
  Drug uptake: 12.4 µg/g
[5]
  Drug uptake: 8.04 µg
[6]
  Drug uptake: 40.2 µg/g
[7]
  Drug uptake: 32.1 µg/g
[8]
  Drug uptake: 37.79 µg
[9]
  Drug uptake: 30.3 µg/g
[10]
  Drug uptake: 3.26 µg
[11]
  Drug uptake: 1.25 µg
[12]
  Drug uptake: 0.99 µg/g
Staphylococcus
  MIC90: ≤ 0.06 µg/mL
Blood
  Drug uptake: 1.5 µg/g
[13]
  Drug uptake: 20.9 µg/g
[14]
  Drug uptake: 7.28 µg
[15]
  Drug uptake: 25.1 µg/g
[16]
  Drug uptake: 8.04 µg/g
[17]
  Drug uptake: 7.48 µg/g
[18]
  Drug uptake: 4.84 µg
[19]
  Drug uptake: 0.38 µg/g
[20]
  Drug uptake: 0.34 µg/g
[21]
  Drug uptake: 18.7 µg/g
[22]
  Drug uptake: 10.3 µg/g
[23]
  Drug uptake: 22.1 µg/g
[24]
  Drug uptake: 8.64 µg/g
Oryctolagus cuniculus [25]
  Cp: 19.3 µg/g
Oryctolagus cuniculus [26]
  Cp: 2.78 µg
Oryctolagus cuniculus [27]
  Cp: 0.94 µg
[28]
  Drug uptake: 3.94 µg/g
[29]
  Drug uptake: 3.39 µg/g
[30]
  Drug uptake: 1.96 µg/g
[31]
  Drug uptake: 15.1 µg/g
[32]
  Drug uptake: 9.52 µg/g
[33]
  Drug uptake: 16.1 µg/g
[34]
  Drug uptake: 0.75 µg/g
[35]
  Drug uptake: 0.64 µg/g
[36]
  Drug uptake: 0.6 µg/g
